The record followed here is ChEMBL document CHEMBL5532691, “Anti-cancer activity and mechanism of flurbiprofen organoselenium compound RY-1-92 in non-small cell lung cancer” (RSC Med Chem, 2024).

The data set relates to BEAS-2B. The data set is described as follows: Cytotoxicity against human BEAS-2B cells assessed as reduction in cell viability at 1.2 mM measured after 48 hrs by MTT assay. It is filed as toxicity, cell-based. The following applies: 1200 µM. Background: Tetrazolium dyes change colour on reduction, which living cells bring about.

Regarding `CC1=C(CC(=O)O)c2cc(F)ccc2/C1=C\c1ccc([S+](C)[O-])cc1` (stereo unspecified) [SULINDAC], the Activity entry was “Toxic”.
